Test results as given in publication PMC10705919 (International Journal of Molecular Sciences, 2023).

Molecular target: T1, TRPV4 (Canis lupus, UniProt A0A8I3PAV3)
T1 construct: endogenous channel in MDCK cells
Assay: whole-cell patch clamp, block of GSK1016790A-evoked currents in MDCK cells
Format: cell-based

T1 sequence (A0A8I3PAV3 1-828): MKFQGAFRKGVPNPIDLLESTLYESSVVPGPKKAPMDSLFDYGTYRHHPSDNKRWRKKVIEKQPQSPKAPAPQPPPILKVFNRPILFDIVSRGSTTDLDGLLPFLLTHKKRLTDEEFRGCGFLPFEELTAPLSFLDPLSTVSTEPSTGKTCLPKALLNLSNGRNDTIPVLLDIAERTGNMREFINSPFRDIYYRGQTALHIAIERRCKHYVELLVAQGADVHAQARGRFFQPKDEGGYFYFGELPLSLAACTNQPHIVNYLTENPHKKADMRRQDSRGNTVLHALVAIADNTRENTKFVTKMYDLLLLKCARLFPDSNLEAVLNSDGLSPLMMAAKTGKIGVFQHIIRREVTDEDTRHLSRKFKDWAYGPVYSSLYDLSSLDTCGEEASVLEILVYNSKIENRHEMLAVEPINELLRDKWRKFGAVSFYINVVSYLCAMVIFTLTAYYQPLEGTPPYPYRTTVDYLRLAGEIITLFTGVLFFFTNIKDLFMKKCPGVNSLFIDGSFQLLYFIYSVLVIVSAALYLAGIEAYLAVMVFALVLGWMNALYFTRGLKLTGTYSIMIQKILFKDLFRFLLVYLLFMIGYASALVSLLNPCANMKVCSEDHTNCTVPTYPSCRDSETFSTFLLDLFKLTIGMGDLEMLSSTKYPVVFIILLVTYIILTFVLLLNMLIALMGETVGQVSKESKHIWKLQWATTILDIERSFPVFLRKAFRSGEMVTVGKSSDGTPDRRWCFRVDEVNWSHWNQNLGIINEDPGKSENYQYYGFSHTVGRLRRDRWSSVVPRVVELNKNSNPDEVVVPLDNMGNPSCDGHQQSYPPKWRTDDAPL

SMILES: Cc1c(C(=O)Nc2cccc(C(F)(F)F)c2)cc(-c2ccccc2)n1CCCN1CCOCC1 [HC, HC-067047]
- whole-cell patch clamp, block of GSK1016790A-evoked currents in MDCK cells: the addition of HC significantly decreases the transient enhancement of dIm induced by GSK alone
